# Data as given in US20230000827A1, “INHIBITORS OF HSP70 PROTEIN” (INSERM (INSTITUTE NATIONAL DE LA SANTÉ ET DE LA RECHERCHE …, priority 2019, published 2023).
# What was measured:
# recombinant HSP70 = recombinant HSP70 (Homo sapiens, UniProt P0DMV8); test: HSP70 chaperone activity, protein thermolability (aggregation) assay; format: biochemical; conditions: 1 μM, heat shock 55° C., 1 h, recombinant HSP70 10 ng
# Experimental: FIG. 2: Small molecules hits A, B and C inhibit HSP70 chaperone activity. A) Protein aggregation was determined in the presence or absence of recombinant HSP70 (10 ng). When indicated A18 or molecules A, B and C were added (1 μM). B) Protein aggregation was determined in the presence or absence of recombinant HSP70, HSC70 or HSP90 (10 ng).
# When indicated A18 or molecules A, B and C were added (1 μM). A0, a non-relevant peptide aptamer was used here as a negative control. Values are normalized for each HSP. 100% chaperone effect being the inhibition of protein aggregation induced by addition of the recombinant chaperones.
# HSP70 chaperone activity was evaluated with a protein thermolability assay. HSF1−/− MEFs extracts were incubated 20 minutes on ice in lysis buffer (50 mM HEPES, 150 mM NaCl, 5 mM EDTA, 0.1% NP40) supplemented with protease inhibitors (Roche, France). […]
# Cellular extracts, to which recombinant HSP70, HSP90 or HSC70 were added with or without the small molecules to test, were diluted to a final concentration of 2 mg. mL-1 in pH 7 Tris-HCl buffer and heated at 55° C. during 1 hour. After g−16,000 centrifugation at 4° C. during 10 minutes, supernatant native protein quantity was determined by Lowry method (Dc Assay Kits, Bio-Rad). This final protein concentration was then compared to the initial protein concentration in supernatants to quantify denatured proteins. […]
# HSP70/A18 interaction [1] = molecular target: T1, HSP70/A18 interaction (Homo sapiens, UniProt P0DMV8); test: AptaScreen high-throughput yeast two-hybrid dual luminescence screening of A18/HSP70 association; format: cell-based; conditions: for IC50: dose-response, inhibition of A18 binding to HSP70; for Confirmation inhibition: hit confirmation; for inhibition at 10 µM: molecules screened at 10 μM
# T1 construct: expressed in transfected cells
# T1 sequence (P0DMV8 whole entry): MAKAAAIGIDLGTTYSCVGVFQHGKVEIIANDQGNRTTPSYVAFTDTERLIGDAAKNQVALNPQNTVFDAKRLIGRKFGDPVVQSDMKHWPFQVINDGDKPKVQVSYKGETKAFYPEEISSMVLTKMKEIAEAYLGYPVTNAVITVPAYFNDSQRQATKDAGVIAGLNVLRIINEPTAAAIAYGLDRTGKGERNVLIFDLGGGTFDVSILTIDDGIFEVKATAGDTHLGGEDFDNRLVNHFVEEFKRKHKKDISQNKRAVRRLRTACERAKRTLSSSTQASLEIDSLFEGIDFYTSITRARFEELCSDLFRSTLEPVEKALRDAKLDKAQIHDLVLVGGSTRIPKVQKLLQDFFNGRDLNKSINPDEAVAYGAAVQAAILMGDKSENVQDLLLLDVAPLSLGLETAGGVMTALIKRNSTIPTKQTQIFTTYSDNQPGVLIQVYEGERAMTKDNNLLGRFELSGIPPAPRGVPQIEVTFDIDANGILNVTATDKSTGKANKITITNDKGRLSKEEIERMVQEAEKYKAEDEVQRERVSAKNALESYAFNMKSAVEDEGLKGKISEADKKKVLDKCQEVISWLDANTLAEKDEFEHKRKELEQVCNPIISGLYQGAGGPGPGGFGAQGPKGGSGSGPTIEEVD
# Experimental: Table 1. High throughput screening of chemical agonists of the A18 peptide aptamer. The screening was based on the ability of the molecules to inhibit the association A18/HSP70.
# A high-throughput screening assay, AptaScreen™ (developed by Aptanomics SA; (Baines I C et al. Drug Discov Today. 2006;11:334-341; Rerole A L, et al. Cancer Res 20119;71:484-495)) was performed by the Company Imaxio (Lyon, France) on a library of almost 60,000 small molecules. The AptaScreen™ assay is based on an automated dual luminescence (luc and ruc reporter genes) yeast two-hybrid assay, with HSP70 expressed as a ‘bait’ and A18 aptamer expressed as a ‘prey’. The HSP70/A18 interaction directs the transcription of the luc reporter gene, while in the same assay a control protein/aptamer couple directs the transcription of the ruc reporter. A small molecule can be considered as ‘hit candidate’ when it inhibits the interaction between HSP70 and A18 (i.e. decreases the luciferase signal), but not the control interaction (i.e. no or little change in the ruc signal). Molecules were screened at a concentration of 10 μM and then hit candidates were confirmed by dose-response assays, following the standard protocol (Rerole A L, et al. Cancer Res 20119;71:484-495).
# A high-throughput screening assay, AptaScreen™ (developed by Aptanomics SA; ^22,23), was performed by the Company Imaxio (Lyon, France) on a library of almost 60,000 small molecules including most of the marketed drugs. The AptaScreen™ assay is based on an automated dual luminescence (luc and ruc reporter genes) yeast two-hybrid assay, with HSP70 expressed as a ‘bait’ and a peptide aptamer (A18), the inventors previously isolated that bound to the ATP domain of HSP70 expressed as a ‘prey’ (Rerole A L, et al. Cancer Res 20119;71:484-495). A small molecule can be considered as ‘hit candidate’ when it inhibits the interaction between HSP70 and A18 (i.e. decreases the luciferase signal). Molecules were screened at a concentration of 10 μM. Eight molecules (hit candidates) were initially identified. From the dose-response studies, three of them were retained on the basis of their specificity and high inhibitory activity against A18 binding to HSP70 (Table 1 and 2).
# HSP70/A18 interaction [2] = molecular target: T1, HSP70/A18 interaction; test: Ability to block HSP70/A18 interaction (Biacore); format: binding; conditions: block of HSP70/A18 interaction; read-out: Activity profil/50% effective concentration (EC50)
# Excerpt: Table 2. Selected “Hits” with high inhibitory activity against A18 binding to HSP70. Their chemical structure is shown as well as their ability to block HSP70/A18 interaction (Biacore).
# [3] = tested on: Human cervix cancer Hela cells; test: Chemo-sensitization to cisplatin, cell survival colorimetric assay, HeLa; format: cell-based; conditions: molecule 2 μM with cisplatin 25 μM, 48 h
# Experimental: (§1) FIG. 3. The chemical molecule hits sensitize cancer cells to cisplatin. A) Human cervix HeLa or B) mouse colorectal cancer CT-26 cells were incubated during 48 h with cisplatin (25 μM) in the presence of absence of molecules A, B and C (2 μM). Cell survival was measured by a colorimetric assay staining.
# (§2) 3.5×10^4 adherent cells were plated onto 24-well culture plates in complete medium. Cells were treated with small molecules at various concentrations (1 μM to 30 μM) for 4 hours to determine cellular IC50. Then, cells of half of each 24-well culture plates were treated with cisplatin (CDDP, 25 μM) for 48 hours. Cell death was measured by the crystal violet colorimetric assay staining.
# (§3) To study the effect of the molecules in cancer cells, the inventors used two different cancer cells lines: Human cervix cancer Hela cells and mouse colorectal cancer CT-26. Cells were treated with the small molecule hit (2 μM) either alone or together with cisplatin for 48 hours and cell survival was determined. […] Cells seem to die mainly by apoptosis, as detected by the amount of Annexin V positive/propidium iodide negative cells obtained after treatment with the molecule (FIG. 5). The inventors conclude that the hit candidates block HSP70 chaperone activity and sensitize cancer cells to apoptosis induced by cisplatin.
# [4] = tested on: mouse colorectal cancer CT-26; test: Chemo-sensitization to cisplatin, cell survival colorimetric assay, CT-26; format: cell-based; conditions: CT-26, molecule 2 μM with cisplatin 25 μM, 48 h
# Experimental: as §1, §2, §3
# Solubility (statement) = format: physicochemical
# Sequence of recombinant HSP70 (P0DMV8 whole entry): as above
Inhibition of HSP70 chaperone activity (recombinant HSP70),HSP70 specificity (HSP70/A18 interaction [1]),IC50 (HSP70/A18 interaction [1]),Confirmation inhibition (HSP70/A18 interaction [1]),inhibition at 10 µM (HSP70/A18 interaction [1]),EC50 (HSP70/A18 interaction [2]),Solubility (Solubility (statement)),SMILES,Cell death induced by cisplatin [3],Cell death induced by cisplatin [4]
only partially blocked,YES,19.6 µM,34,105%,19.6 µM,–,O=C1N=C(N2CCCCC2)S/C1=C\c1ccccc1F [Molecule A],–,–
much more important inhibition,YES,0.2 µM,59,105%,0.2 µM,hardly soluble,CCOc1ccc(C)cc1S(=O)(=O)n1nnc2ccccc21 [Molecule B],most important effect,most important effect
